The source made the active and inactive calls. The calls are words filed in the database; no cut-off is given here.
How the values were obtained:
[1] = (§1) Inhibition of N-terminal hexa-histidine tagged Dengue virus 2 NS2B/NS3 protease I30A/L31A/T120C mutant expressed in Escherichia coli BL21-Gold (DE3) in presence of N-benzylmaleimide using fluorogenic AMC-substituted peptide boc-GRR-7-amino-4-methylcoumarin measured every 30 secs for 10 mins by fluorometric assay; set-up: species or system dengue virus type 2
[2] = as §1, with “I30A/L31A” for “I30A/L31A/T120C”; set-up: species or system dengue virus type 2
Nonstructural protein 3 [3] = biological target: T1, Nonstructural protein 3 (Zika virus, UniProt A0A024AXB9); experiment: Inhibition of N-terminal hexa-histidine tagged Zika virus NS2B/NS3 protease expressed in Escherichia coli BL21-Gold (DE3) using fluorogenic AMC-substituted peptide boc-GRR-7-amino-4-methylcoumarin measured every 30 secs for 10 mins by fluorometric assay
T1 sequence (A0A024AXB9 whole entry): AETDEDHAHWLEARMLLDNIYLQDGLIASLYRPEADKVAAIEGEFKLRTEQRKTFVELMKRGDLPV

Zika virus [4] = experiment: Antiviral activity against Zika virus Uganda infected in human A549 cells assessed as reduction in viral RNA at 5 uM measured after 24 to 72 hrs post infection by RT-qPCR analysis; format: functional, organism-based
Zika virus [5] = experiment: Antiviral activity against Zika virus infected in African green monkey Vero cells assessed as suppression of viral replication at 10 uM pre-incubated with cells for 1 hr before viral infection and measured after 4 days by RT-qPCR analysis; format: functional, organism-based
Zika virus [6] = experiment: Antiviral activity against Zika virus French Polynesia infected in human A549 cells assessed as reduction in viral RNA at 5 uM measured after 24 to 72 hrs post infection by RT-qPCR analysis; format: functional, organism-based
A549 = experiment: Cytotoxicity against human A549 cells assessed as reduction in cell viability up to 5 uM by Presto blue cell viability reagent based assay
[7] = as §1, with “I30A/L31A/T122C” for “I30A/L31A/T120C”; set-up: species or system dengue virus type 2
[8] = as §1, with “I30A/L31A/T122C” for “I30A/L31A/T120C”, “N-ethylmaleimide” for “N-benzylmaleimide”; set-up: species or system dengue virus type 2
[9] = as §1, with “N-ethylmaleimide” for “N-benzylmaleimide”; set-up: species or system dengue virus type 2
[10] = Inhibition of N-terminal hexa-histidine tagged Dengue virus 2 NS2B/NS3 protease I30A/L31A/T120C mutant expressed in Escherichia coli BL21-Gold (DE3) using fluorogenic AMC-substituted peptide boc-GRR-7-amino-4-methylcoumarin measured every 30 secs for 10 mins by fluorometric assay; set-up: species or system dengue virus type 2
[11] = Inhibition of N-terminal hexa-histidine tagged Dengue virus 2 NS2B/NS3 protease I30A/L31A/T118C mutant expressed in Escherichia coli BL21-Gold (DE3) using fluorogenic AMC-substituted peptide boc-GRR-7-amino-4-methylcoumarin measured every 30 secs for 10 mins by fluorometric assay; set-up: species or system dengue virus type 2
[12] = Inhibition of N-terminal hexa-histidine tagged Dengue virus 2 NS2B/NS3 protease I30A/L31A/T122C mutant expressed in Escherichia coli BL21-Gold (DE3) using fluorogenic AMC-substituted peptide boc-GRR-7-amino-4-methylcoumarin measured every 30 secs for 10 mins by fluorometric assay; set-up: species or system dengue virus type 2
Nonstructural protein 3 [13] = biological target: T1, Nonstructural protein 3; experiment: Inhibition of Zika virus NS2B/NS3 protease
[14] = as §1, with “I30A/L31A” for “I30A/L31A/T120C”, “N-ethylmaleimide” for “N-benzylmaleimide”; set-up: species or system dengue virus type 2
Zika virus [15] = experiment: Antiviral activity against Zika virus infected in human A549 cells assessed as induction of redistribution of the ZIKV Env protein from ER to cytoplasm at 0.5 uM by confocal scanning microscopy; format: functional, organism-based
[16] = Inhibition of N-terminal hexa-histidine tagged Dengue virus 2 NS2B/NS3 protease I30A/L31A mutant expressed in Escherichia coli BL21-Gold (DE3) using fluorogenic AMC-substituted peptide boc-GRR-7-amino-4-methylcoumarin measured every 30 secs for 10 mins by fluorometric assay; set-up: species or system dengue virus type 2
[17] = as §1, with “I30A/L31A/T118C” for “I30A/L31A/T120C”; set-up: species or system dengue virus type 2
[18] = Permeability in human C2BBe1 cells at 10 uM incubated for 3 hrs by LC-MS analysis relative to control; format: ADME, cell-based; details: c2bbe1, 3 h
[19] = Drug metabolism in rat liver microsomes assessed as formation of (R)-N-(5,6-Dimethoxybenzo[d]thiazol-2-yl)-1-((4-(hydroxymethyl) phenyl) sulfonyl)pyrrolidine-2-carboxamide in presence of NADPH generating system by LC-MS/MS analysis; format: ADME, Microsome
dengue virus type 2 = experiment: Antiviral activity against Dengue virus 2 infected in African green monkey Vero cells assessed as suppression of viral replication at 10 uM pre-incubated with cells for 1 hr before viral infection and measured after 4 days by RT-qPCR analysis; format: functional, organism-based
[20] = Drug metabolism in rat liver microsomes assessed as formation of (S)-1-Benzoyl-N-(5,6-dihydroxybenzo[d]thiazol-2-yl)pyrrolidine-2-carboxamide in presence of NADPH generating system by LC-MS/MS analysis; format: ADME, Microsome
[21] = Drug metabolism in rat liver microsomes assessed as formation of (R)-N-(5,6-Dihydroxybenzo[d]thiazol-2-yl)-1-tosylpyrrolidine-2-carboxamide in presence of NADPH generating system by LC-MS/MS analysis; format: ADME, Microsome
[22] = Drug metabolism in rat liver microsomes assessed as formation of (S)-N-(5,6-Dimethoxybenzo[d]thiazol-2-yl)-1-((4-(hydroxymethyl) phenyl) sulfonyl)pyrrolidine-2-carboxamide in presence of NADPH generating system by LC-MS/MS analysis; format: ADME, Microsome

Q: Which results are given for `O=C(Nc1nc2cc(O)c(O)cc2s1)c1ccccc1Oc1ccc2cc(O)ccc2c1`?
A: IC50 [1]: 12.6 µM; IC50 [2]: 4.96 µM; IC50 (Nonstructural protein 3 [3]): 1.41 µM; Activity (Zika virus [4]): inactive; Activity (Zika virus [5]): inactive; Activity (Zika virus [6]): inactive; Activity (A549): Non-Toxic; IC50 [7]: 15.8 µM; IC50 [8]: 14.1 µM; IC50 [9]: 8.53 µM; IC50 [10]: 1.97 µM; IC50 [11]: 1 µM; IC50 [12]: 2.67 µM; IC50 (Nonstructural protein 3 [13]): 1.42 µM; IC50 [14]: 4.11 µM; Activity (Zika virus [15]): inactive; IC50 [16]: 4.2 to 4.22 µM; IC50 [17]: 7.06 µM

Q: Which Activity (Zika virus [4]) does the source give for `COc1cc2nc(NC(=O)[C@H]3CCCN3S(=O)(=O)c3ccc(C)cc3)sc2cc1OC` here?
A: inactive

Q: What about the Activity (Zika virus [5]) of the same compound?
A: inactive

Q: What about the permeability [18] of the same compound?
A: 91%

Q: And the Drug metabolism [19]?
A: Metabolite_Detected

Q: What about the Activity (Zika virus [6]) of the same compound?
A: inactive

Q: What about the Activity (A549) of the same compound?
A: Non-Toxic

Q: What about the Activity (dengue virus type 2) of the same compound?
A: Active

Q: What about the Drug metabolism [20] of the same compound?
A: Metabolite_Detected

Q: What about the Drug metabolism [21] of the same compound?
A: Metabolite_Detected

Q: What about the Drug metabolism [22] of the same compound?
A: Metabolite_Detected
